Patent US7163954B2, “Substituted naphthyl benzothiophene acids” (Wyeth, priority 2003, dated 2007)

Experiments:
[1] = biological target: T1, recombinant human plasminogen activator inhibitor-1 (PAI-1) (Homo sapiens, UniProt P05121); assay: Primary screen for the PAI-1 inhibition (residual tPA activity, Spectrozyme-tPA chromogenic substrate); assay type: biochemical; conditions: 25 μM test compound; inhibition of Plasminogen Activator Inhibitor-1
T1 construct: purchased Molecular Innovations, Royal Oak, Mich
Protocol: Test compounds are dissolved in DMSO at a final concentration of 10 mM, then diluted 100× in physiologic buffer. The inhibitory assay is initiated by the addition of the test compound (1–100 μM final concentration, !maximum DMSO concentration of 0.2%) in a pH 6.6 buffer containing 140 nM recombinant human plasminogen activator inhibitor-1 (PAI-1; Molecular Innovations, Royal Oak, Mich.). Following a 1 hour incubation at room temperature, 70 nM of recombinant human tissue plasminogen activator (tPA) is added, and the combination of the test compound, PAI-1 and tPA is incubated for an additional 30 minutes. Following the second incubation, Spectrozyme-tPA (American Diagnostica, Greenwich, Conn.), a chromogenic substrate for tPA, is added and absorbance read at 405 nm at 0 and 60 minutes. Relative PAI-1 inhibition is equal to the residual tPA activity in the presence of the test compound and PAI-1. Control treatments include the complete inhibition of tPA by PAI-1 at the molar ratio employed (2:1), and the absence of any effect of the test compound on tPA alone.

T1 sequence (P05121 24-402): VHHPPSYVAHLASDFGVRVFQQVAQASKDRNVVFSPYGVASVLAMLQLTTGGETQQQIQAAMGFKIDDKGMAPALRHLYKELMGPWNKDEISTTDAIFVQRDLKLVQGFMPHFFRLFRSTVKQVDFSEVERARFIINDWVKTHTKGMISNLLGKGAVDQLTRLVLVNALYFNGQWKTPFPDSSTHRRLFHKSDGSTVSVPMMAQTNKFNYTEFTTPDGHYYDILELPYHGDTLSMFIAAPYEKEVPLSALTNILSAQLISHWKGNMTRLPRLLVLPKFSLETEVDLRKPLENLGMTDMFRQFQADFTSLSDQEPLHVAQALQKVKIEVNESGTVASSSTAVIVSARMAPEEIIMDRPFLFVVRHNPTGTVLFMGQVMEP

Row | Compound | inhibition at 25 µM [1] [%] | melting point [°C]
1 | CCCCC(=O)c1c(-c2ccc3c(Br)c(OCC(=O)O)ccc3c2)sc2ccccc12 [Compound 2, [1-Bromo-6-(3-pentanoyl-benzo[b]thiophen-2-yl)-naphthalen-2-yloxy]-acetic acid] | 69 | 164 to 165
2 | O=C(O)COc1ccc2cc(-c3sc4ccccc4c3C(=O)Cc3ccccc3)ccc2c1Br [Compound 4, [1-Bromo-6-(3-phenylacetyl-benzo[b]thiophen-2-yl)-naphthalen-2-yloxy]-acetic acid] | 54 | 170 to 172
3 | CC(C)(C)CC(=O)c1c(-c2ccc3c(Br)c(OCC(=O)O)ccc3c2)sc2ccccc12 [Compound 6, {1-Bromo-6-[3-(3,3-dimethyl-butyryl)-benzo[b]thiophen-2-yl]-naphthalen-2-yloxy}-acetic acid] | 77 | 206 to 207

Second part, the compound after the results:

Row | inhibition at 25 µM [1] [%] | melting point [°C] | Compound
4 | 59 | – | CCCCC(=O)c1c(-c2ccc3c(Br)c(OCc4nnn[nH]4)ccc3c2)sc2ccccc12 [Compound 1, 1-{2-[5-Bromo-6-(1H-tetrazol-5-ylmethoxy)-naphthalen-2-yl]-benzo[b]thiophen-3-yl}-pentan-1-one]
5 | 52 | – | O=C(Cc1ccccc1)c1c(-c2ccc3c(Br)c(OCc4nnn[nH]4)ccc3c2)sc2ccccc12 [Compound 3, 1-{2-[5-Bromo-6-(1H-tetrazol-5-ylmethoxy)-naphthalen-2-yl]-benzo[b]thiophen-3-yl}-2-phenyl-ethanone]
6 | 84 | – | CC(C)CC(=O)c1c(-c2ccc3c(Br)c(OCc4nnn[nH]4)ccc3c2)sc2ccccc12 [Compound 5, 1-{2-[5-Bromo-6-(1H-tetrazol-5-ylmethoxy)-naphthalen-2-yl]-benzo[b]thiophen-3-yl}-3-methyl-butan-1-one]
